The values that follow come from patent US7776572B2, “Method for reducing loss of enzyme activity during storage” (Corning Incorporated, priority 1996, dated 2010).

The test system of data set [1] is IgG. Kind of data set: IgG/Au staining of coated polystyrene, type of endgroups. The method, then: Except where indicated, the non-ionic surfactants were applied to the hydrophobic surfaces being tested as a 0.1% (weight/volume) solution in isopropanol. A sufficient amount of coating solution was used to cover the surface being testing with a thin layer of the solution (e.g., 25 μl of the solution per well for a standard 24-well plate). In some cases, the solution was applied to surface by spraying; in others, it was poured onto the surface (into the well). Except where indicated, coated samples were either dried at 70° C. for 30 minutes in an air circulated oven or dried at room temperature overnight to evaporate the isopropanol. Protein binding was determined in some examples using a colloidal gold straining procedure. In accordance with this procedure, colloidal gold becomes electrostatically attached to bound protein and is detected by measuring absorbance at 550 nanometers. Bio-Rad Laboratories' Colloidal Gold Total Protein Stain was used for this purpose, with absorbance being measured with a Cambridge Technologies Plate Reader (No. 7520). The non-ionic surfactants listed in Table 6 were tested for their ability to produce a low binding surface using the techniques described in Materials and Methods. Polystyrene was used as the hydrophobic test surface and IgG/Au staining was used as the readout.

Data set [2] has as its system Fetal Bovine Serum (FBS). The data set is described as follows: Polymer blends molded into petri dishes, FBS protein binding by colloidal gold.
Protocol: Low binding non-ionic surfactant molecules were blended at 5% (except as noted in Table 13) into a base polymer using a twin screw extruder, then injection molded into the shape of 35 mm petri dishes. Proteins tested were BSA and Fetal Bovine Serum (FBS). Protein binding was determined using a colloidal gold staining procedure as described above. In the case of the polypropylene and EVA blends, a silver enhancer was used (Sigma Chem. Co., St, Louis, Mo., Kit #SE-100).
The test system of data set [3] is ^125I-IgG (goat anti-mouse). Kind of data set: Radiometric determination of IgG binding to surfactant-coated polystyrene microtiter wells. To be noted: for Total IgG binding, Non-Sterilized: coated polystyrene wells; for Total IgG binding, Non-Sterilized / Tight IgG binding, Non-Sterilized: not sterilized; for Total IgG binding, Non-Sterilized / Total IgG binding, Sterilized: after three PBS washes; for Total IgG binding, Sterilized / Tight IgG binding, Sterilized: gamma sterilized (1.5 Mrad); for Tight IgG binding, Sterilized / Tight IgG binding, Non-Sterilized: after two hours in PBS-Tween (0.05%).

Data set [4] has as its system Horse IgG. The data set is described as follows: Protein binding by colloidal gold staining, coated medium binding polystyrene plates. To be noted: coated medium binding PS; IgG 10 μg/ml, pH 9.4. The essentials:
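Medium-binding polystyrene wells coated with non-ionic surfactant (0.1% w/v in isopropanol, dried), then exposed 30 min on a rocker to horse IgG at 10 μg/ml in 0.10M NaHCO3, pH9.4. Bound protein stained overnight with colloidal gold; absorbance at 550 nm.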

Data set [5] has as its system MDCK cells. The data set is described as follows: Cytotoxicity of extracts of coated plates. The format is cell-based. To be noted: media extract of coated plates (37° C., 48 hours), MDCK 72 hours, Gram Crystal Violet. The method, then: Cytotoxicity experiments were performed using MDCK cells. The non-ionic surfactants tested were Pluronic L-121, L-122, and P-123; Span 80 and 85; and Brij 30, 72 and 93. These molecules were coated onto 24-well plates (Corning Costar #9447) from 0.1% (w/v) in isopropanol. Untreated polystyrene and normal tissue culture treated polystyrene (Corning Costar #25820) 24-well plates were used as controls. All plates were incubated at 37° C. for 48 hours with 2 ml/well of complete DMEM media containing 10% Fetal Bovine Serum (FBS). This incubation was performed in order to extract any potentially toxic compounds from the coated surface into the cell growth serum. The FBS solutions were then transferred to tissue culture treated polystyrene and each well was inoculated with ≈2×10^4 cells/well of MDCK cells, and then incubated at 37° C. for 72 hours in a 5% CO2 atmosphere. Cells were then stained with Gram Crystal Violet.

For data set [6], the system named is BSA. Kind of data set: Polymer blends molded into petri dishes, BSA binding by colloidal gold. To be noted: for BSA or FBS protein binding: blend in polypropylene or EVA.
Data set [7] deals with IgG. The data set is described as follows: Coating durability using water washes, IgG binding by colloidal gold. To be noted: for Absorbance (550 nm) Initial: coated polystyrene, no water wash; for Absorbance (550 nm) 1 Time 1 hr 23° C. / Absorbance (550 nm) 1 Time 24 hr 23° C. / Absorbance (550 nm) 1 Time 24 hr 37° C. / Absorbance (550 nm) 1 Time 24 hr 70° C.: dI H2O wash 1 time; for Absorbance (550 nm) 6 Times 30 min each 23° C.: dI H2O wash 6 times. The essentials:
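24-well polystyrene plates coated with surfactants; durability tested by water washes on a rocker. IgG incubated 30 minutes at 23° C. with rocking, then rinsed 3× with water.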

Where [8] appears, read: blended at 1% into ethylene vinyl acetate.
Setting [9] is: blended at 5% into ethylene vinyl acetate, silver enhancer.
[10] abbreviates: blended at 5% into polypropylene, silver enhancer.

With `CCCCCCCC/C=C\CCCCCCCCOCCOCCO` [PEO(2) OLEYL ETHER], the “Bound Protein Absorbance at 550 nm” value in data set [1] stood at 0.00. Moreover, the “Bound Protein Absorbance (550 nm) FBS” value in data set [2] (setting [8]) was 0.291; in data set [2] (setting [9]) it was 0.000; in data set [2] (setting [10]), 0.000; in data set [2] (blended at 5% into polystyrene), 0.015. The “Total IgG binding, Non-Sterilized” value in data set [3] worked out at 7 ng/cm^2. In addition, in data set [3], the “Total IgG binding, Sterilized” value was 22 ng/cm^2. Also, the “Tight IgG binding, Sterilized” value in data set [3] worked out at 4 ng/cm^2. Moreover, the “Tight IgG binding, Non-Sterilized” value in data set [3] came to 5 ng/cm^2. In addition, in data set [4], the “IgG Protein Binding Absorbance (550 nm)” value is 0.00. Besides, the “cell growth and morphology” value in data set [5] is “confluent cell growth with normal cell morphology”. Also, the “BSA or FBS protein binding” value in data set [6] is “no detectable”. Besides, the “Bound Protein Absorbance (550 nm) BSA” value was determined as 0.000 in data set [6] (setting [8]), 0.000 in data set [6] (setting [9]), 0.000 in data set [6] (setting [10]) and 0.007 in data set [6] (blended at 5% into polystyrene).

Take PEO(20) SORBITOL TRI-STEARATE: in data set [1], the “Bound Protein Absorbance at 550 nm” value came to 0.00. In data set [7], the “Absorbance (550 nm) Initial” value came out at 0.00, the “Absorbance (550 nm) 1 Time 1 hr 23° C.” value is on record as 0.00, the “Absorbance (550 nm) 1 Time 24 hr 23° C.” value was found to be 0.02 and the “Absorbance (550 nm) 1 Time 24 hr 37° C.” value worked out at 0.10. Further, in data set [7], the “Absorbance (550 nm) 1 Time 24 hr 70° C.” value was determined as 0.10 and the “Absorbance (550 nm) 6 Times 30 min each 23° C.” value came to 0.10. In addition, in data set [3], the “Total IgG binding, Non-Sterilized” value was 5 ng/cm^2; the “Total IgG binding, Sterilized” value came to 7 ng/cm^2; the “Tight IgG binding, Sterilized” value came to 4 ng/cm^2; the “Tight IgG binding, Non-Sterilized” value is listed as 2 ng/cm^2. Also, the “IgG Protein Binding Absorbance (550 nm)” value in data set [4] worked out at 0.00.

With SORBITOL MONO-OLEATE, the “Bound Protein Absorbance at 550 nm” value in data set [1] worked out at 0.00. In addition, the “Bound Protein Absorbance (550 nm) FBS” value in data set [2] (setting [8]) is 0.371. For the same compound, the “Bound Protein Absorbance (550 nm) FBS” value in data set [2] (setting [9]) was found to be 0.000. Besides, the “Bound Protein Absorbance (550 nm) FBS” value in data set [2] (setting [10]) came out at 0.000. For the same compound, in data set [7], the “Absorbance (550 nm) Initial” value stood at 0.00, the “Absorbance (550 nm) 1 Time 1 hr 23° C.” value came out at 0.00, the “Absorbance (550 nm) 1 Time 24 hr 23° C.” value was 0.00 and the “Absorbance (550 nm) 1 Time 24 hr 37° C.” value was found to be 0.00. In addition, in data set [7], the “Absorbance (550 nm) 1 Time 24 hr 70° C.” value worked out at 0.00 and the “Absorbance (550 nm) 6 Times 30 min each 23° C.” value is 0.00. Also, in data set [3], the “Total IgG binding, Non-Sterilized” value came out at 31 ng/cm^2; the “Total IgG binding, Sterilized” value is given as 33 ng/cm^2; the “Tight IgG binding, Sterilized” value is 5 ng/cm^2; the “Tight IgG binding, Non-Sterilized” value was determined as 7 ng/cm^2. Also, in data set [4], the “IgG Protein Binding Absorbance (550 nm)” value is 0.00. Besides, the “cell growth and morphology” value in data set [5] was “confluent cell growth with normal cell morphology”. Further, in data set [6], the “BSA or FBS protein binding” value is listed as “no detectable”. The “Bound Protein Absorbance (550 nm) BSA” value in data set [6] (setting [8]) turned out to be 0.147. Besides, the “Bound Protein Absorbance (550 nm) BSA” value in data set [6] (setting [9]) came to 0.000. Further, in data set [6] (setting [10]), the “Bound Protein Absorbance (550 nm) BSA” value came to 0.000.

On to PEO(4) SORBITOL MONO-STEARATE, for which, in data set [2] (setting [10]), the “Bound Protein Absorbance (550 nm) FBS” value was found to be 0.057. In data set [7], the “Absorbance (550 nm) Initial” value is on record as 0.00, the “Absorbance (550 nm) 1 Time 1 hr 23° C.” value is 0.00, the “Absorbance (550 nm) 1 Time 24 hr 23° C.” value stood at 0.02 and the “Absorbance (550 nm) 1 Time 24 hr 37° C.” value was 0.10. In data set [7], the “Absorbance (550 nm) 1 Time 24 hr 70° C.” value came to 0.10 and the “Absorbance (550 nm) 6 Times 30 min each 23° C.” value amounted to 0.10. In data set [3], the “Total IgG binding, Non-Sterilized” value is 37 ng/cm^2; the “Total IgG binding, Sterilized” value is 130 ng/cm^2; the “Tight IgG binding, Sterilized” value is reported as 80 ng/cm^2; the “Tight IgG binding, Non-Sterilized” value turned out to be 18 ng/cm^2. Moreover, the “IgG Protein Binding Absorbance (550 nm)” value in data set [4] came to 0.00. The “Bound Protein Absorbance (550 nm) BSA” value in data set [6] (setting [10]) is 0.016.

For the compound `CCCCCCCCCCCCOCCOCCOCCOCCO` [PEO(4) LAURYL ETHER], in data set [3], the “Total IgG binding, Non-Sterilized” value is given as 2 ng/cm^2; the “Total IgG binding, Sterilized” value worked out at 10 ng/cm^2; the “Tight IgG binding, Sterilized” value is on record as 4 ng/cm^2; the “Tight IgG binding, Non-Sterilized” value was determined as 2 ng/cm^2. For the same compound, the “IgG Protein Binding Absorbance (550 nm)” value in data set [4] is on record as 0.00. In data set [5], the “cell growth and morphology” value was “confluent cell growth with normal cell morphology”.
